The source of these data is ChEMBL document CHEMBL5360567, “Modulating leishmanial pteridine metabolism machinery via some new coumarin-1,2,3-triazoles: Design, synthesis and computational studies” (Eur J Med Chem, 2023).

Structures are written as SMILES. pIC50: −log10 of the molar value.

Data set [1] relates to Leishmania major. Kind of data set: Potency index, ratio of iC50 for miltefosine IC50 to test compound IC50 for antileishmanial activity against Leishmania major promastigotes. It is filed as functional.
Data set [2] has as its system Leishmania major. Briefly: Antileishmanial activity against Leishmania major promastigotes incubated for 24 hrs measured by alamar blue staining based fluorescence analysis. It is filed as functional, organism-based.
Data set [3] concerns Leishmania major. Briefly: Antileishmanial activity against Leishmania major amastigotes incubated for 24 hrs measured by alamar blue staining based fluorescence analysis. It is filed as functional, organism-based.
Data set [4] relates to Leishmania major. Kind of data set: Reversal of antileishmanial activity against Leishmania major promastigotes assessed as parasite survival at IC50 preincubated with 20 uM folic acid for 1 hr followed by compound incubated for 48 hrs (reference value: 24%). It is filed as functional.
Data set [5] has as its system Leishmania major. Briefly: Reversal of antileishmanial activity against Leishmania major promastigotes assessed as parasite survival at IC50 preincubated with 100 uM folic acid for 1 hr followed by compound incubated for 48 hrs (reference value: 24%). Format: functional.
The test system of data set [6] is Leishmania major. Kind of data set: Reversal of antileishmanial activity against Leishmania major promastigotes assessed as parasite survival at IC50 preincubated with 20 uM folinic acid for 1 hr followed by compound incubated for 48 hrs (reference value: 24%). Format: functional.
For data set [7], the system named is Leishmania major. Briefly: Reversal of antileishmanial activity against Leishmania major promastigotes assessed as parasite survival at IC50 preincubated with 100 uM folinic acid for 1 hr followed by compound incubated for 48 hrs (reference value: 24%). Format: functional.
A short description of data set [8]: Selectivity index, ratio of CC50 for green monkey Vero cells to IC50 for antileishmanial activity against Leishmania major amastigotes. It is filed as toxicity, cell-based. Conditions: read-out: Ratio CC50/IC50.
Data set [9] is described as follows: Cytotoxicity against green monkey Vero cells incubated for 72 hrs by crystal violet staining analysis. Format: toxicity, cell-based. As to conditions: chlorocebus sabaeus.
Data set [10] deals with Leishmania major. Briefly: Antileishmanial activity against Leishmania major promastigotes incubated for 24 hrs measured by alamar blue staining based fluorescence analysis relative to control. It is filed as functional.
Data set [11] concerns Leishmania major. Briefly: Antileishmanial activity against Leishmania major amastigotes incubated for 24 hrs measured by alamar blue staining based fluorescence analysis relative to control. It is filed as functional.
Data set [12] relates to Leishmania major. Kind of data set: Reversal of antileishmanial activity against Leishmania major promastigotes assessed as parasite survival at IC50 preincubated with 20 uM folinic acid for 1 hr followed by compound incubated for 48 hrs (reference value: 22%). Format: functional.
Data set [13] has as its system Leishmania major. Briefly: Reversal of antileishmanial activity against Leishmania major promastigotes assessed as parasite survival at IC50 preincubated with 20 uM folic acid for 1 hr followed by compound incubated for 48 hrs (reference value: 22%). It is filed as functional.
For data set [14], the system named is Leishmania major. Briefly: Reversal of antileishmanial activity against Leishmania major promastigotes assessed as parasite survival at IC50 preincubated with 100 uM folinic acid for 1 hr followed by compound incubated for 48 hrs (reference value: 22%). It is filed as functional.
Data set [15] deals with Leishmania major. Briefly: Reversal of antileishmanial activity against Leishmania major promastigotes assessed as parasite survival at IC50 preincubated with 100 uM folic acid for 1 hr followed by compound incubated for 48 hrs (reference value: 22%). Format: functional.
Data set [16] concerns Leishmania major. Briefly: Potency index, ratio of IC50 for miltefosine IC50 to test compound IC50 for antileishmanial activity against Leishmania major amastigotes. Format: functional.
The subject of data set [17] is Leishmania major. Briefly: Reversal of antileishmanial activity against Leishmania major promastigotes assessed as parasite survival at IC50 preincubated with 20 uM folinic acid for 1 hr followed by compound incubated for 48 hrs (reference value: 20%). Format: functional.
Data set [18] concerns Leishmania major. Briefly: Reversal of antileishmanial activity against Leishmania major promastigotes assessed as parasite survival at IC50 preincubated with 20 uM folic acid for 1 hr followed by compound incubated for 48 hrs (reference value: 20%). Format: functional.
Data set [19] has as its system Leishmania major. Briefly: Reversal of antileishmanial activity against Leishmania major promastigotes assessed as parasite survival at IC50 preincubated with 100 uM folic acid for 1 hr followed by compound incubated for 48 hrs (reference value: 20%). Format: functional.
The test system of data set [20] is Leishmania major. Briefly: Reversal of antileishmanial activity against Leishmania major promastigotes assessed as parasite survival at IC50 preincubated with 100 uM folinic acid for 1 hr followed by compound incubated for 48 hrs (reference value: 20%). Format: functional.
In data set [21] the test system is Leishmania tropica. Kind of data set: Antileishmanial activity against Leishmania tropica amastigotes incubated for 24 hrs measured by alamar blue staining based fluorescence analysis. It is filed as functional, organism-based.
The subject of data set [22] is Leishmania tropica. Briefly: Antileishmanial activity against Leishmania tropica promastigotes incubated for 24 hrs measured by alamar blue staining based fluorescence analysis. It is filed as functional, organism-based.

Regarding `CCCCOc1ccc2cc(/C(C)=N/OCCCCCCn3cc(CN4CCCCC4)nn3)c(=O)oc2c1`, the “Ratio IC50” value with Leishmania major [1] is 2. In addition, the values for the pIC50 with Leishmania major [2] and with Leishmania major [3] were 5.41 and 5.35, respectively.
Take `CCCCOc1ccc2cc(C(=O)NCCCCCCn3cc(CN4CCCC4)nn3)c(=O)oc2c1`: the Activity worked out at 76% in the data set with Leishmania major [4], 84% in the data set with Leishmania major [5], 83% in the data set with Leishmania major [6] and 94% in the data set on Leishmania major [7]. Further, the “Ratio IC50” value with Leishmania major [1] was found to be 13. The negative-log IC50 (pIC50) was 6.23 in the data set on Leishmania major [2] and 6.09 with Leishmania major [3]. Moreover, the selectivity ratio in [8] came to 311. Also, it took 252000 nM to reach half-maximal cytotoxicity in [9] (CC50 at 72 h).
In the case of `CCCCOc1ccc2cc(C(=O)NCCCCCCn3cc(CN4C(=O)CSC4=O)nn3)c(=O)oc2c1`, the “Ratio IC50” value with Leishmania major [1] is recorded as 3. The Activity with Leishmania major [10] was 30%; in the data set on Leishmania major [11], 48%. Moreover, the results for the pIC50 in the data set on Leishmania major [2] and in the data set on Leishmania major [3] were 5.64 and 5.41, respectively.
For `CCCCOc1ccc2cc(/C(C)=N/OCCCCCCn3cc(CN4CCCC4)nn3)c(=O)oc2c1`, the Activity came to 79% with Leishmania major [12], 74% in the data set with Leishmania major [13], 87% in the data set on Leishmania major [14] and 81% in the data set with Leishmania major [15]. Moreover, the “Ratio IC50” value in the data set on Leishmania major [1] was 10; with Leishmania major [16], 8. In addition, the negative-log IC50 (pIC50) in the data set with Leishmania major [2] is 6.11; with Leishmania major [3], 6.00. Also, in data set [8], the selectivity ratio is 496. The compound also returned a CC50 at 72 h in data set [9] of 490000 nM.
Regarding `CCCCOc1ccc2cc(C(=O)NCCCCCCn3cc(CN4CCOCC4)nn3)c(=O)oc2c1`, the Activity with Leishmania major [17] is reported as 88%; with Leishmania major [18], 82%; in the data set with Leishmania major [19] it was 91%; in the data set on Leishmania major [20] it was 91%. Also, the “Ratio IC50” value with Leishmania major [1] is 20. Further, the pIC50 with Leishmania major [2] was 6.40; in the data set with Leishmania major [3] it was 6.17. In [8], the selectivity ratio was found to be 359. Besides, half-maximal cytotoxicity in data set [9] (CC50 at 72 h) was put at 244000 nM.
As to `CCCCOc1ccc2cc(C(=O)NCCCCCCn3cc(CSC4=NC(=O)CS4)nn3)c(=O)oc2c1`, in the data set with Leishmania major [1], the “Ratio IC50” value was 3. Further, the Activity with Leishmania major [10] came out at 30%; in the data set on Leishmania major [11], 48%. For the same compound, the values for the pIC50 with Leishmania major [2] and in the data set with Leishmania major [3] were 5.63 and 5.41, respectively.
With `CCCCOc1ccc2cc(/C(C)=N/OCCCCCCn3cc(CSC4=NC(=O)CS4)nn3)c(=O)oc2c1`, the “Ratio IC50” value in the data set with Leishmania major [1] was determined as 2. In addition, the pIC50 was 5.43 with Leishmania major [2] and 5.32 in the data set on Leishmania major [3].
As to `O=C(N/N=C1\C(=O)N(CC(O)COc2cc(=O)oc3ccccc23)c2ccccc21)c1ccncc1` (stereo not given), the pIC50 is 6.06 with Leishmania tropica [21] and 7.00 in the data set with Leishmania tropica [22].
As to `CCCCOc1ccc2cc(C(=O)NCCCCCCn3cc(CN4CCCCC4)nn3)c(=O)oc2c1`, in the data set on Leishmania major [1], the “Ratio IC50” value is recorded as 7. In addition, the pIC50 in the data set with Leishmania major [2] is 5.92; in the data set with Leishmania major [3], 5.74.
The matching figures for `CCCCOc1ccc2cc(/C(C)=N/OCCCCCCn3cc(CN4C(=O)CSC4=O)nn3)c(=O)oc2c1`: 3, 5.55 and 5.41.
In the same order, the values of `CCCCOc1ccc2cc(/C(C)=N/OCCCCCCn3cc(CN4CCOCC4)nn3)c(=O)oc2c1` are 2, 5.33 and 5.28.
